Source: US9061006B2, “Compositions and methods for diagnosing and treating phenylketonuria (PKU)” (Ramot at Tel-Aviv University Ltd., priority 2011, dated 2015)

Columns and labels:
Assay type in all cases: cell-based
PC12 cells = assay: MTT cell viability assay, PC12 cell line; conditions: negative control amino acid, increasing amount
Procedure: (§1) Cell cytotoxicity experiments—CHO cells (2×10^5 cells/mL) were cultured in 96-well micro plates (100 μL/well) and incubated overnight at 37° C. 100 μL of phenylalanine was added to each well dissolved in Dulbecco's Modified Eagle Medium (DMEM) (Beit Haemek, Israel) at various concentrations. Each experiment was repeated 3 times. Following incubation for 6 hours at 37° C., cell viability was evaluated using the 3-(4,5-dimethylthiazolyl-2)-2,5-diphenyltetrazolium bromide (MTT) assay. Briefly, 20 μL of 5 mg/mL MTT dissolved in PBS was added to each well. After 4 hours incubation at 37° C., 100 μL of extraction buffer [20% SDS dissolved in a solution of 50% dimethylformamide and 50% DDW (pH 4.7)] was added to each well, and the plates were incubated again overnight at 37° C. Finally, color intensity was measured using an ELISA reader at 570 nm.
(§2) The present inventors next examined whether, like many amyloid structures, phenylalanine assemblies have a cytotoxic effect. This was examined in a physiological range of concentration, similar to that detected in untreated PKU patients. We performed in vitro cellular viability experiments. To this end, elevated concentrations of phenylalanine ranging from 0.1 μM to 15 mM were added to […] cultured PC12 cells. […] In the presence of 1.8 mM phenylalanine, PC12 cell viability was decreased to approximately 80%. […] In the presence of 6 mM phenylalanine, CHO cell viability was decreased to 84%. Moreover, the viability of the cells in the presence of phenylalanine at concentration of 12 mM was lower than 40% (FIG. 2A). The present assay is performed at much shorter time scales than those of disease progression and this may account for the slightly elevated concentrations than those typically found at PKU patients. It is also possible that such high concentrations of phenylalanine occur pathologically in PKU patients due to transient local high concentration in the brain. […] The present inventors further assessed the influence of the phenylalanine fibrils on the CHO cells using scanning electron microscope.

[1] = Immuno precipitation and cell cytotoxicity experiments (MTT); conditions: Chinese hamster, prior to IP, CHO cells
Procedure: as §1
Immuno precipitation and cell cytotoxicity experiments—Phenylalanine solution at concentration of 7.5, 1.87, 0.46, 0.11 were either incubated with CHO cell or immuno-precipitate and then the solutions, without the fibrils, were incubated with CHO cell according to cell cytotoxicity experiments detailed above. Samples were immuno-precipitated with anti-phenylalanine fibrils antibodies (1:10) over night at 4° C. (previously purified on protein A column, in PBS+2% BSA).

[2] = MTT cell viability assay, CHO cell line; conditions: Chinese hamster, CHO cells
Procedure: as §1

CHO cells = assay: Scanning electron microscopy imaging of CHO cells; conditions: incubation with phenylalanine fibrils 6 hour, SEM
Procedure: Scanning electron microscopy imaging of CHO cells—CHO cell were cultured on glass cover slips located in 24-well micro plates, then incubated with various concentration of phenylalanine fibrils for 6 hour at 37° C., as described in the cell cytotoxicity experiments section. The cell were fixated on the glass cover slip with 2.5% glutaraldehyde, then dehydrated and coated with gold. Scanning electron microscopy images were made using a JSM JEOL 840A SEM operating at 5 kV.

[3] = MTT cell viability assay, PC12 cell line; conditions: rat, PC12 cells
Procedure: as §1, §2

CHO cell morphology (CHO cells)	CHO cell density (CHO cells; compared to untreated cells)	SMILES	toxic effect (cytotoxicity) (PC12 cells)	viability at 6 h, 1.87 mM ([1]; 1.87 mM phenylalanine assemblies) [%]	viability at 6 h, 7.5 mM ([1]; 7.5 mM phenylalanine assemblies) [%]	viability at 6 h, 6 mM ([2]; 6 mM phenylalanine) [%]	viability at 6 h, 12 mM ([2]; 12 mM phenylalanine) [%]	viability at 1.8 mM ([3]; 1.8 mM phenylalanine) [%]	viability at 7.5 mM ([3]; 7.5 mM phenylalanine) [%]
		C[C@H](N)C(=O)O [Alanine, reference compound]	did not demonstrate a toxic effect						
smaller and rounded	very low density	N[C@@H](Cc1ccccc1)C(=O)O [phenylalanine]		56	44	84	< 40	~80	~65
